Source: patent publication US7528144B2, “Molecules and methods for fluorescence microscopy” (WiSys Technology Foundation, Inc., priority 2005, dated 2009)

Experiments:
lysosomes = assay: Colocalization with Lysotracker Red by fluorescence microscopy; format: cell-based; details: live THP-1 cells
Protocol: (§1) A. LTI studies: Aliquots of THP-1 cells (Cell densities were 1×10^6 cells per mL) were exposed to either 100 nM InstantLyso LLT-1 in RPMI 1640 medium with 10% FCS at 37° C., 5% CO2, both InstantLyso LLT-1 and 100 nM Lysotracker Red (Molecular Probes, Eugene Oreg.), or both InstantLyso LLT-1 and at a concentration of 75 nM. Mitotracker Red (Molecular Probes). In each case, medium is first pipetted off cells, then warmed medium containing dyes is added. The cell suspension is incubated for 30 minutes at 37° C. and examined by microscopy.
Colocalization of InstantLyso LLT-1 with Lysotracker red were performed under the following conditions: Live THP-1 Leukemic monocytes were grown in RPMI 1640 medium at 37C. and 5% CO2 for 5 days. 2 mL of cells were allowed to adhere to a Biocoat (polylysine coated) glass bottomed cell culture plate for 30 minutes at 37C. The old medium was removed and 2 mLs of 37 C fresh media containing 1 00 nM InstantLyso LLT-1 (from 10 μM DMSO stock) and 100 nM Lysotracker Red (from 1 mM DMSO stock) was added. Cells were incubated at 37C for 30 minutes. And visualized with an inverted epifluorescence microscope at 600× using a blue/purple (450/50 ex and 510/50 em with D480 mirror) cube for InstantLyso LLT-1 and a green (560/50 ex and 646/40 em with D595 mirror). Exposure was automatic. Temperature was ambient. […]

mitochondria = assay: Colocalization with Mitotracker Red by fluorescence microscopy; format: cell-based
Protocol: as §1
(§2) B. InstantLipo Sep-1 studies: Aliquots of either THP-1 cells or adherent human fibroblasts were exposed to either 200 nM InstantLipo Sep-1in RPMI 1640 medium with 10% FCS at 37 C, 5% CO2, both InstantLipo Sep-1and Vybrant lipid raft kit (Molecular Probes, used according to the manufacturer's instructions), both InstantLipo Sep-1and Mitotracker Red (Molecular Probes, used according to the manufacturer's instructions), or both InstantLipo Sep-1and Lysotracker Red. Cells were incubated at 37° C. for at least 20 minutes. […] Some of the punctate structures moved rapidly when observed by confocal microscopy in living cells. Conditions for colocalization are as follows: Live THP-1 Leukemic monocytes were grown in RPMI 1640 medium at 37 C and 5% CO2 for 5 days. […]

cholesterol-rich domains = assay: Staining of fibroblasts treated with cholesterol transport inhibitor U18666A; format: cell-based, human; details: foreskin fibroblasts, 3 μg/mL U18666A overnight, 150 nM dye, 30 minutes
Protocol: Similarly, 3 μg/mL from H20 stock of aminoesterol U18666A (Calbiochem)) is often used with fibroblasts to inhibit intracellular cholesterol transport and leads to accumulation of cholesterol in nuclear regions (C. F. Roff, E. Goldin, M. E. Comly, A. Cooney, A. Brown, M. T. Vanier, S. P. Miller, R. O. Brady and P. G. Pentchev, Dev Neurosci 13 (1991) 315-9). Foreskin fibroblasts were grown on coverslips for 1 day in EMEM. Medium was removed and replaced with 2 mL fresh EMEM to ensure consistent treatment as cells that were treated with U18666A. Cells were incubated at 37° C. and 5% CO2 overnight. Medium was removed and replaced with 2 mL EMEM containing 200 nM InstantLipo Sep-1. Cells were then incubated at 37° C. and 5% CO2 for 30 minutes to allow dye to load. Cells were imaged using an epifluorescence microscope at 1000× magnification while excited with a purple cube.
Foreskin fibroblasts were grown on coverslips for 3 days in EMEM. Medium was removed and replaced with 2 mL EMEM containing 3μg/mL U18666A. Cells were incubated at 37° C. and 5% CO2 overnight. Medium was removed and replaced with 2 mL EMEM containing 150 nM InstantGolgi McN-1. Cells were then incubated at 37° C. and 5% CO2 for 30 minutes to allow dye to load. […] This is consistent with the staining of more numerous and pathological cholesterol-rich domains and vesicles. […]

THP-1 cells [1] = details: FIG. 24, concentration not given
THP-1 cells [2] = assay: Staining pattern in live THP-1 cells; format: cell-based; details: THP-1 monocytic cells, 100 nM dye, 30 minutes
Protocol: as §1, §2

Row | Structure (SMILES) | colocalization with lysosomes (Lysotracker Red) (lysosomes; 150 nM dye + 75 nM Lysotracker Red) | colocalization with mitochondria (MitoTracker Red) (mitochondria; live THP-1 cells, 150 nM dye + 50 nM MitoTracker Red) | staining change after U18666A (cholesterol-rich domains) | cytotoxicity / viability (Trypan blue) (THP-1 cells [1]) | co-localization with Lysotracker Red (lysosomes; 100 nM dye + 100 nM Lysotracker Red, 30 minutes) | co-localization with Mitotracker Red (mitochondria; THP-1 cells, 100 nM dye + 75 nM Mitotracker Red, 30 minutes) | staining pattern (THP-1 cells [2])
1 | CCCCCCN1C(=O)c2cccc3c(NCCNS(=O)(=O)c4ccc(C)cc4)ccc(c23)C1=O [InstantGolgi McN-1, N-hexyl-4-[2-(4-toluensulfonyl)aminoethyl]amino-1,8-naphthalimide] | limited colocalization with lysosomes and mitochondria | limited colocalization with lysosomes and mitochondria | more punctate bright spots in cells after inhibition | no significant cytotoxicity |  |  | 
2 | CCCCCCN1C(=O)c2cccc3c(NCCN)ccc(c23)C1=O [InstantLyso LLT-1, 6-(2-aminoethyl)amino-2-hexyl-1H-benz[de]isoquinoline-1,3-(2H)-dione] |  |  |  |  | positive co-localization | failed to exhibit such co-localization | staining in punctate structures
